Laboratory results as given in patent US8367319B2, “Methods and compositions for the identification of antibiotics that are not susceptible to antibiotic resistance” (Wayne State University, priority 2002, dated 2013).
In brackets after ≈: the same amount, converted by molar mass. Read-outs that look alike come from different tables or passages of the source.

Assays:
[1] = test system: E. coli DH5; assay: Minimum inhibitory concentration (MIC) of chloramphenicol for cells expressing plasmid-derived ribosomes (CAT reporter); format: cell-based; conditions: for MIC: Escherichia coli
[2] = test system: E. coli DH5; assay: as above; format: cell-based; conditions: for MIC: Escherichia coli; remark: listed apart in the source
Method: Bacterial strains and media. All plasmids were maintained and expressed in E. coli DH5 (supE44, hsdR17, recA1, endA1, gyrA96, thi-1 and relA1) (36). To induce synthesis of plasmid-derived rRNA from the lacUV5 promoter, IPTG was added to a final concentration of 1 mM. Chloramphenicol acetyltransferase activity was determined essentially as described by Nielsen et al. (1989) Anal. Biochem. 179: 19-23. Cultures for CAT assays were grown in LB-Ap100. MIC were determined by standard methods in microtiter plates as described in Lee, K., et al. (1997) J. Mol. Biol. 269: 732-743.
Minimum inhibitory concentration determination. MICs were determined by standard methods in microtiter plates or on solid medium. Overnight cultures grown in LB-Ap100 were diluted and induced in the same medium containing 1 mM IPTG for three hours. Approximately 10^4 induced cells were then added to wells (or spotted onto solid medium) containing LB-Ap100+ IPTG (1 mM) and chloramphenicol at increasing concentrations.

`O=C(N[C@H](CO)[C@H](O)c1ccc([N+](=O)[O-])cc1)C(Cl)Cl` [chloramphenicol] showed an MIC ([1]; DH5, pRNA122 (specialized ribosomes), uninduced, read-out: background chloramphenicol MIC) of 40 to 50 µg/mL (≈ 124 to 155 µM), an MIC ([1]; DH5, uninduced cells containing pRNA100 (FIG. 13), read-out: MIC of chloramphenicol) of 100 µg/mL and a Chloramphenicol resistance ([1]; uninduced cells containing pRNA100) of 75 µg/mL. For the same molecule, the MIC ([2]; DH5, 451 of 536 selected MBS-RBS isolates (84.1%), in the presence of inducer, read-out: MIC of chloramphenicol) was 400 to 600 µg/mL, the MIC ([2]; DH5, 24 h, cells expressing wild-type rRNA from pRNA122 (unmutated control), induced with 1 mM IPTG, 24 hours, read-out: MIC of chloramphenicol) was 600 µg/mL and the MIC ([2]; DH5, 24 h, nine slow growing MBS-RBS isolates (1.7%), in the presence of inducer, scored after 24 hours, read-out: MIC of chloramphenicol) was less than 350 µg/mL. It also gave an MIC ([2]; DH5, pRNA122 (specialized ribosomes), induced cells, read-out: MIC of chloramphenicol) of 550 to 600 µg/mL, an MIC ([2]; DH5, read-out: MIC of chloramphenicol, mean over mutants, cells expressing 78 functional 790-loop mutants in pRNA122, standard deviation 89) of 320 µg/mL and an MIC ([2]; DH5, read-out: MIC of chloramphenicol, median and mode over mutants, cells expressing 78 functional 790-loop mutants in pRNA122) of 350 µg/mL. For the same molecule, the MIC ([2]; DH5, read-out: MIC of chloramphenicol, remaining 76 selected MBS-RBS clones (14.2%), in the presence of inducer) was 600 µg/mL, the “chloramphenicol concentration to which cells are sensitive” value ([2]; pRNA122 + wt MBS: CAT message translated by wild-type ribosomes) was less than 10 µg/mL and the “MIC of chloramphenicol, range over mutants” value ([2]; {}) was 150 to 550 µg/mL.
